# Test results: a melting point compilation (Tetko et al.; mined from patent text by program, amines drawn as free bases though some values may be those of a salt)
row,melting point [°C],Structure (SMILES)
1,132 to 135,Cn1c(C(F)(F)F)cc(=O)n(-c2c(F)cc(Cl)c3c2OC(C)(C)CC3)c1=O
2,159 to 161,CCOC(=O)c1cncc(C(=O)NC(C)c2ccccc2)c1 (stereo not given)
3,132,CCNC(=O)c1ccc(-n2nnc(C(=O)NC3CC3)c2COCc2ccccc2)c(OCc2ccccc2)c1
4,167 to 169,Cc1ccc2nc(SCc3ccccn3)n(-c3ccccc3)c(=O)c2c1
5,115 to 117,CCC(CC)Nc1c(Br)c(CBr)nc2c1nnn2-c1c(C)cc(C)cc1C
6,202 to 204,CCNC1C(C)CN(c2c(F)c(N)c3c(=O)c(C(=O)O)cn(C4CC4)c3c2OC)CC1C (stereo not given)
7,> 280,O=C(O)c1ccc(C=Cc2ccc(C(=O)O)cc2)cc1
8,193 to 195,NS(=O)(=O)c1ccc(-c2cnn(CC(F)(F)F)c(=O)c2-c2ccc(F)cc2)cc1
9,156 to 158,OC(Cc1ccc2ccccc2n1)C(Cl)(Cl)Cl (stereo not given)
10,83 to 84,COC(=O)[C@H](CC(=O)OC(C)(C)C)NC(=O)c1cccc(NC(=O)c2ccc(C#N)cc2)c1
11,76 to 79,CC(=O)Oc1cc(C(C)=O)cc(C#N)c1OC(C)=O
12,168 to 170,O=C1CCC(N2Cc3c(OCc4ccc(CN5CCN(C(=O)CCCCC6SCC7NC(=O)NC76)CC5)cc4)cccc3C2=O)C(=O)N1 (stereo not given)
13,90 to 91,CCOC(=O)C=Cc1ccc(C=CC(=O)OCC)c2ccccc12
14,148 to 150,COc1cc2cc(C(=O)C(C)CC#N)sc2cc1OC (stereo not given)
15,115,COc1ccc(-c2ccc(=O)n(Cc3nc4cc(F)ccc4o3)c2)cc1
16,153 to 155,CCC(Oc1ccc(F)cc1F)C(=O)OC1CC(O)C=C2C=CC(C)C(CCC3CC(O)CC(=O)O3)C21 (mixture of isomers)
17,182,CCn1c(C=O)c(-c2ccc(F)cc2)c(C(C)C)c1C(=O)O
18,218 to 221,COc1ccc(NC(=O)c2ccc(F)c(F)c2)cc1NCc1cccc(C(=O)O)c1
19,58 to 61,CC1=C(CCC(C)CCC(=O)O)C(=O)c2ccccc2C1=O (stereo not given)
20,135 to 137,CSc1ccc2ncc(N)c(-c3ccccc3)c2c1
21,171,Oc1ccc2c(c1)CCCC(c1ccccc1)=C2c1ccc(OCCCCCSCc2ccco2)cc1
22,198 to 200,COc1ccc2c(=O)cc(C(=O)N[C@H]3CCN(C(=O)c4cc(C(F)(F)F)cc(C(F)(F)F)c4)[C@H](Cc4ccc(Cl)cc4)C3)oc2c1
23,160 to 161,CCOC(=O)c1nn(-c2ccc(Cl)cc2)c(=O)c(C#N)c1C
24,182 to 185,CCC(=C(c1ccccc1)c1ccc(C=CC(N)=NO)cc1)c1ccccc1

row,melting point [°C],Structure (SMILES)
1,122 to 126,O=Cc1cccc(OCC(O)CN2C(=O)c3ccccc3C2=O)c1 (stereo not given)
2,154 to 156,CCOC(=O)c1c(N)sc2c1CN(C(=O)OCC)C2
3,141 to 142,CN(O)C(=O)C=Cc1ccc(F)cc1
4,93 to 94,Nc1nc2ccccc2c2c1ncn2CCCCNC(=O)c1ccccc1Oc1ccccc1
5,147 to 148,CCOC(=O)c1c(CN2CCOCC2)nc2cc(OCC)c(OCC)cc2c1-c1ccc(OC)c(OC)c1
6,243,O=C(NC1CCC(Oc2ccc(F)cc2)CC1)NC12CC3CC(CC(C3)C1)C2 (stereo not given)
7,92 to 94,COc1ccc2c(c1)c(Cc1cc(=O)n(-c3ccc(C(F)(F)F)cc3)[nH]1)c(C)n2C(=O)c1ccc(C#N)cc1
8,266 to 267,NC(=O)c1cccc2[nH]c(-c3ccc(O)cc3)nc12
9,90 to 94,Cc1cccc2c(Cl)cc(C(F)(Cl)Cl)nc12
10,94 to 96,CC(C)n1nc(-c2sc(NC(=O)CN(C)CCc3ccccn3)nc2-c2ccccc2)ccc1=O
11,193,O=c1cc(C(F)(F)F)[nH]n1-c1ccccc1
12,79,COc1cccc2c1CCC1C(C)=C(O[Si](C)(C)C)CCC21C (stereo not given)
13,144 to 148,CCCc1ccc(S(=O)(=O)n2c(CCC(=O)O)cc3cc(Cl)ccc32)cc1
14,135 to 138,CC=CCn1c(C)c(C)c2cnnc(NCc3ccc(F)cc3)c21
15,51,COc1ccc(C(=CN(C)C)C(C)=O)cc1
16,220,C#CCNC(=O)N1c2ccccc2-c2noc3c2C1CCC3 (stereo not given)
17,330,CN1CCN(N=C2CC(c3ccc(C(F)(F)F)cc3)Cc3[nH]c4ccc(Cl)cc4c(=O)c32)CC1 (stereo not given)
18,209 to 210,COP(=O)(Cc1ccc(NC(=O)/C=C/c2cnn(C)c2-c2ccc(F)cc2)cc1)OC
19,230 to 232,CC(C)(C)c1ccc(-c2cc(N3CCOCC3)cc(=O)o2)cc1
20,> 300,O=C(O)c1ccc(-c2cc(-c3ccc(C(F)(F)F)cc3)on2)cc1
21,115 to 116,CCCCCCc1ccc(C2CN=C(NC(=O)OC)N2C)cc1 (stereo not given)
22,157,CC(C)N(NC(=O)c1ccc(Cl)c(Cl)c1)C(=O)c1ccccc1
23,< 20,CCOC(=O)C(C)(C)Oc1ccc(-c2ccc(CCNC(=O)c3cccc(OC)c3OC)cc2)cc1
24,102 to 108,CS(=O)(=O)c1ccc(-c2cc(CCO)sc2-c2ccc(F)cc2)cc1

row,melting point [°C],Structure (SMILES)
1,118 to 120,C=C(C)C(=O)Nc1cccc(OC(=O)NC(C)(C)CC(C)(C)C)c1
2,59 to 60,CCOC(=O)c1cc(SC)c(I)cc1N
3,124 to 125,Cc1cccc(Oc2ccc(Cl)cc2C(=O)O)c1
4,51,N#Cc1cc(F)ccc1Oc1cccc(C(F)(F)F)c1
5,219 to 223,CCCN1C(=O)CC(C)(C)c2cc(C)c(-c3cc(C=O)ccc3OC(F)(F)F)cc21
6,133 to 134,O=C(N[C@@H](Cc1ccccc1)C(=O)O)C(CS)C(F)(F)F (stereo not given in full)
7,31 to 35,COC(=O)NC(CCc1ccccc1)C(=O)OCC(Cl)(Cl)Cl (stereo not given)
8,150 to 154,COC(=O)c1sc2ccccc2c1S(N)(=O)=O
9,104 to 106,COC(=O)C(C)(C)OCC#Cc1cc(C(F)(F)F)ccc1NS(=O)(=O)c1ccc2nc(NC(C)=O)sc2c1
10,185 to 189,Fc1cc(Cc2ccnc3c2Cc2ccccc2O3)ccn1
11,80 to 84,c1ccc(C(c2ccccc2)N2CCN(CCCCn3cccc3)CC2)cc1
12,123 to 124,CO[C@H]1O[C@@H](C)[C@@H]2[C@H](O)[C@H]3CCCC[C@@H]3C[C@H]12
13,264 to 266,Cn1nnc(-c2ccc(C=Cc3ccc(-c4nc5ccccc5o4)cc3)cc2)c1C#N
14,168,CC(=O)OC1CSC(Oc2ccc(S(C)(=O)=O)cc2)C(OC(C)=O)C1OC(C)=O (stereo not given)
15,188 to 190,Clc1cc(CC2(Cc3ccnc(Cl)c3)c3ccccc3-c3ncccc32)ccn1
16,142 to 144,CCSCc1cccc(-c2nc(=O)c3ccccc3s2)n1
17,100 to 101,C=CCNC(=O)N1CC(Oc2ccc(Br)cc2)C1
18,183 to 185,CC(C)Oc1c(C(N)=O)oc2ccc(O)cc12
19,122 to 125,C[C@@H]1N(C(=O)OC(C)(C)C)C(=O)C[C@]1(C)O
20,65.5 to 67,Cc1cccc(NCCC#N)c1C
21,185 to 187,CSc1ccc(C(=O)NCc2ccc3c(c2)C(=O)N(C2CCC(=O)NC2=O)C3=O)nc1 (stereo not given)
22,200 to 201,Cc1ncnc2c1ncn2[C@H](C)[C@](O)(Cn1cncn1)c1ccc(F)cc1F
23,167 to 170,NC(=O)C1CCC2(CC1)OCCO2
24,78 to 80,CCOC(=O)c1ccccc1Nc1nc(Nc2ccc3c(c2)CCN(CCOC)CC3)ncc1Cl

row,melting point [°C],Structure (SMILES)
1,260 to 263,COc1cc2c(cc1OC)N(C)C(=O)CNC2=O
2,101 to 103,CCCc1nc2c(N)nc3cc(OCCOCCCl)ccc3c2s1
3,139,Nc1ccc(C23CC(C2)C(=O)N(C2CCCCC2)C3=O)cc1
4,80,CC(=O)N(O)Cc1cccc([N+](=O)[O-])c1
5,65 to 67,CCOC(=N)C(O)c1ccccc1 (stereo not given)
6,76 to 87,Cn1nnnc1SCc1c(S(C)(=O)=O)ccc(C(=O)C2=C(Sc3ccccc3)CCCC2=O)c1Cl
7,190 to 192,COc1cc(C2=NN(c3ccccc3)C(=O)C2)cc([N+](=O)[O-])c1OC
8,162 to 165,Cc1nc2cc(Cl)ccc2c(=O)n1C
9,264 to 265,CC(=O)N[C@H]1CCN(C(=O)c2ccc(-c3[nH]nc4c3C(=O)c3c(NC(=O)NN5CCOCC5)cccc3-4)s2)C1
10,118 to 121,O=C(O)CCCCCCCCCCCCCCC(=O)ON1C(=O)CCC1=O
11,125 to 126,COc1ccc(-c2c(Br)oc3cc(OC)cc(OC)c23)cc1
12,112 to 113,CCCOc1ccccc1-c1nccc(=O)[nH]1
13,93 to 94,COc1ccc(C(CCC(C)=O)C(=O)c2ccc(OCc3ccccc3)cc2)cc1 (stereo not given)
14,124 to 126,COc1ccc(Cl)ccc1=O
15,147 to 149,O=C(NNS(=O)(=O)c1ccccc1)c1ccc(F)cc1Cl
16,142 to 145,CC(CC#N)C(=O)c1ccc(C(=O)C(C)CC#N)cc1 (stereo not given)
17,113 to 116,Cc1c2c(c(C)n1-c1ccccc1)C(C)(C)OC2(C)C
18,126 to 134,CC(C(=O)NCC(F)(F)C(F)(F)F)C(=O)NC1C(=O)N(C)c2c(F)cccc2OC1C (stereo not given)
19,222,Cc1ccc(-c2cc(C(F)(F)F)n3cnc(-c4ccncc4)c3n2)cc1C(F)(F)F
20,137 to 139,CCOC(=O)Cc1ccc(NC(=O)Nc2ccccc2C(F)(F)F)cc1
21,163 to 168,CS(=O)(=O)Nc1c([N+](=O)[O-])cnn1-c1c(F)c(F)c(C(F)(F)F)c(F)c1F

row,Structure (SMILES),melting point [°C]
1,COc1cc2c(cc1OC)CN(Cc1ccc(OC(=O)N(C)C)c(OC)c1)CC2,126 to 128
2,CN1CCN(c2ccc3[nH]c(=O)oc(=O)c3c2)CC1,285
3,CC1CC2=CC(=O)CCC2(C)C2C(=O)CC3(C)C(=O)CCC3C12 (stereo not given),235 to 237
4,CCOC(=O)CCCC1CCN(CCOC(c2ccccc2)c2ccc(F)cc2)CC1 (stereo not given),119 to 120
5,Cc1ccc(Cl)cc1-n1c(CF)nc2ccc(N)cc2c1=O,214 to 216
6,Nc1ccc2c(c1)OCC(CN1CC=C(c3c[nH]c4ccccc34)CC1)O2 (stereo not given),199 to 200
7,CNC(=O)c1cc2n(n1)-c1ccc(Cl)cc1C(c1ccccc1)=NC2,170 to 172
